Laboratory results taken from patent US4393058A, “Cephalosporin compounds” (Meiji Seika Kaisha, Ltd., priority 1979, dated 1983).
Converted amounts (≈) assume the structure as drawn. Where a name gives a salt, the structure may show the parent alone.

Experiments:
[1] = tested on: Proteus rettgeri GN 624 (CSase); assay: Minimum Inhibitory Concentration by Agar Plate Dilution Method; format: cell-based; details: Providencia rettgeri, GN624
[2] = tested on: Serratia species GN 629 (CSase); assay: as above; format: cell-based; details: GN629
Proteus vulgaris OX 19 = assay: as above; format: cell-based; details: OX19
[3] = tested on: Proteus morganii 1510 (CSase); assay: as above; format: cell-based; details: Morganella morganii
[4] = tested on: Pseudomonas aeruginosa M-0025; assay: as above; format: cell-based; details: M0025
[5] = tested on: Citrobacter freundii GN 346 (CSase); assay: as above; format: cell-based; details: GN346
Maltophilia 604 = assay: as above; format: cell-based
[6] = tested on: Pseudomonas cepacia TMS 199, KM 425; assay: as above; format: cell-based; details: Burkholderia cepacia
[7] = tested on: Escherichia coli GN 206 (CSase); assay: as above; format: cell-based; details: GN206
[8] = tested on: Staphylococcus aereus 209PJC-1; assay: as above; format: cell-based; details: 209PJC1
[9] = tested on: Pseudomonas aeruginosa IAM-1007; assay: as above; format: cell-based; details: IAM1007
[10] = tested on: Staphylococcus aereus Smith S-424; assay: as above; format: cell-based; details: SMITHS424
[11] = tested on: Klebsiella pneumoniae GN 69 (PCase); assay: as above; format: cell-based; details: GN69
[12] = tested on: Pseudomonas cepacia M-0527; assay: as above; format: cell-based; details: Burkholderia cepacia, M0527
[13] = tested on: Bacillus anthracis No. 119; assay: microbe, parasite or virus in culture; format: cell-based; details: NO.119, read-out: Minimum Inhibitory Concentration
[14] = tested on: Serratia marcescens No. 1; assay: Minimum Inhibitory Concentration by Agar Plate Dilution Method; format: cell-based
[15] = tested on: Gram-positive and Gram-negative bacteria, including Pseudomonas aeruginosa; details: conventional cephalosporin series antibiotics; cited from earlier work
mice = assay: Acute toxicity, intraperitoneal administration to mice; format: in vivo; details: six mice, intraperitoneally 1,000 mg/kg
Description: The toxicity of the compounds according to this invention is very low. None of the six mice administered intraperitoneally 1,000 mg/kg of the compound of Example 2 died. Therefore, the compounds of this invention have very low toxicity. In addition, they have a wide antibacterial spectrum and are very effective in treating infectious diseases, as compared with the conventional cephalosporin series antibiotics such as cephalotin, cefazolin, cephalexin and cephaloridine.

Structure (SMILES)	MIC [1] [µg/mL]	MIC [2] [µg/mL]	MIC (Proteus vulgaris OX 19) [µg/mL]	MIC [3] [µg/mL]	MIC [4] [µg/mL]	MIC [5] [µg/mL]	MIC (Maltophilia 604) [µg/mL]	MIC [6] [µg/mL]	MIC [7] [µg/mL]	MIC [8] [µg/mL]	MIC [9] [µg/mL]	MIC [10] [µg/mL]	MIC [11] [µg/mL]	MIC [12] [µg/mL]	MIC [13] [µg/mL]	MIC [14] [µg/mL]	control of Gram-negative bacilli typified by Pseudomonas aeruginosa [15]	mice that died (mice)
COc1ccc(COc2ccc(-c3ccc(C(=O)N[C@@H](C(=O)NC4C(=O)N5C(C(=O)O)=C(CSc6nnnn6C)CSC45)c4ccc(O)cc4)c(=O)[nH]3)cc2OC)cc1OC (single isomer, unassigned) [Example 5, sodium salt of 7-{D(-)-α-[6-[4-(3,4-dimethoxybenzyloxy)-3-methoxyphenyl]-1,2-dihydro-2-oxopyridine-3-carbonylamino]-p-hydroxyphenylacetamido}-3-(1-methyl-1,2,3,4-tetrazol-5-ylthiomethyl)-3-cephem-4-carboxylic acid]	3.13	12.5	0.39	12.5	3.13	0.78	12.5	6.25	0.2	0.78	12.5	0.78	6.25	6.25	0.2	3.13	–	–
CC1=C(C(=O)O)N2C(=O)[C@@H](NC(=O)[C@H](N)c3ccccc3)[C@H]2SC1 [cephalexin]	–	–	–	–	–	–	–	–	–	–	–	–	–	–	–	–	cannot be controlled	–
COc1ccc(-c2ccc(C(=O)N[C@@H](C(=O)NC3C(=O)N4C(C(=O)O)=C(CSc5nnnn5C)CSC34)c3ccc(O)cc3)c(=O)[nH]2)cc1OC (single isomer, unassigned) [Example 2, sodium salt of 7-{D(-)-α-[6-(3,4-dimethoxyphenyl)-1,2-dihydro-2-oxopyridine-3-carbonylamino]-p-hydroxyphenylacetamido}-3-(1-methyl-1,2,3,4-tetrazol-5-ylthiomethyl)-3-cephem-4-carboxylic acid]	12.5	12.5	0.78	25	3.13	3.13	6.25	6.25	3.13	0.78	6.25	0.78	12.5	6.25	1.56	3.13	–	None
O=C(Cc1cccs1)N[C@@H]1C(=O)N2C(C(=O)[O-])=C(C[n+]3ccccc3)CS[C@H]12 [cephaloridine]	–	–	–	–	–	–	–	–	–	–	–	–	–	–	–	–	cannot be controlled	–
CCN1CCN(C(=O)N[C@@H](C(=O)N[C@@H]2C(=O)N3[C@@H]2SC(C)(C)[C@@H]3C(=O)O)c2ccccc2)C(=O)C1=O [Example T-1220, piperacillin, reference compound]	0.78 (≈ 1.51 µM)	25 (≈ 48.3 µM)	1.56 (≈ 3.01 µM)	50 (≈ 96.6 µM)	6.25 (≈ 12.1 µM)	100 (≈ 193 µM)	200 (≈ 386 µM)	–	25 (≈ 48.3 µM)	0.78 (≈ 1.51 µM)	12.5 (≈ 24.2 µM)	1.56 (≈ 3.01 µM)	50 (≈ 96.6 µM)	1.56 (≈ 3.01 µM)	0.78 (≈ 1.51 µM)	1.56 (≈ 3.01 µM)	–	–
Cc1nnc(SCC2=C(C(=O)O)N3C(=O)[C@@H](NC(=O)Cn4cnnn4)[C@H]3SC2)s1 [cefazolin]	–	–	–	–	–	–	–	–	–	–	–	–	–	–	–	–	cannot be controlled	–
CC(=O)OCC1=C(C(=O)O)N2C(=O)[C@@H](NC(=O)Cc3cccs3)[C@H]2SC1 [cephalotin]	–	–	–	–	–	–	–	–	–	–	–	–	–	–	–	–	cannot be controlled	–
